Results on 15 compounds are retold here after patent publication EP2678315B1, “(Pyridin-4-yl)benzylamides as allosteric modulators of alpha 7 nAChR” (Janssen Pharmaceutica, N.V., priority 2011, dated 2012).

Experiment [1] deals with T1, human alpha 7-wt nAChR (Homo sapiens, UniProt P36544).
T1 construct: expressed in transfected cells
Put plainly: Ca2+ flux imaging (FDSS) (protocol B). Particulars: for Emax: read-out: % Efficacy. Type of experiment: cell-based. Put shortly: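 Fluo-4AM-loaded (2 µM) cells expressing human α7-wt nAChR in HEPES-HBSS with 5 mM CaCl2. Compounds (0.01–30 µM) were added, possibly 10 min before, with choline 100 µM, and peak fluorescence was monitored by FDSS. Potentiation was relative to the choline response, set as 100%; EC50 came from sigmoidal curves.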
In general terms: Calcium assays in cells follow changes in intracellular calcium, usually with a dye or a luminescent sensor.

Experiment [2] addresses T1, human alpha 7-wt nAChR. Put plainly: Patch-clamp current recording (whole-cell voltage-clamp, GH4C1 cells). Also on record: key: Type 0 compounds minimally change the effect size of the current elicited by 1 mM choline.; Type 1 compounds enhance the effect size of the current elicited by 1 mM choline but minimally alter the kinetics of the receptor.; Type 2 compounds enhance the effect size of the current elicited by 1 mM choline while reducing the rate and/or the extent of desensitization.; Type 3 compounds enhance the effect size of the current elicited by 1 mM choline. When tested at higher concentrations up to 10 µM they completely inhibit desensitization; Type 4 compounds allow for an initial desensitization of the receptor followed by a re-opening of the receptor during agonist application. Particulars: current elicited by 1 mM choline. Type of experiment: cell-based. The method, then:
The compounds of the present invention are classified as type 1-4, based on qualitative kinetic properties, as determined by whole-cell voltage-clamp recordings. This classification is based on the effect of an alpha 7 PAM compound, as described hereinbefore, on the signal elicited by an agonist application. In particular, said agonist is choline at a concentration of 1mM. In a preferred experimental setting, said alpha 7 PAM compound and choline are simultaneously applied to the cell, as described hereinafter. Desensitization is defined as the closure of the receptor upon activation during the application of the agonist in whole-cell voltage-clamp electrophysiology measurements seen as the reduction of the […] current after initial activation by the agonist.
The definition of the PAM types 1-4 is described hereinafter: Type 0 compounds minimally change the effect size of the current elicited by 1 mM choline. Type 1 compounds enhance the effect size of the current elicited by 1 mM choline but minimally alter the kinetics of the receptor. In particular, the rate and the extent of desensitization and of deactivation of the receptor elicited by the agonist is not affected. The compound-modulated response to 1 mM choline, therefore, is close to a linear scaling of the 1 mM choline response in absence of the alpha 7 PAM compound: Type 2 compounds enhance the effect size of the current elicited by 1 mM choline while reducing the rate and/or the extent of desensitization. Deactivation of the receptor is generally unaffected. Type 3 compounds enhance the effect size of the current elicited by 1 mM choline. […] Deactivation of the receptor may be slowed down. Type 4 compounds allow for an initial desensitization of the receptor followed by a re-opening of the receptor during agonist application. At low-potency concentrations of the alpha 7 PAM compound, the agonist-induced activation, which is followed by desensitization, can still be separated from the compound-induced re-opening as an initial inward current-maximum. At higher potency concentrations of the alpha 7 PAM compound, the re-opening occurs faster than the closure due to desensitization so that the initial current-maximum disappears.
A compound was considered to have interesting PAM-like activity when the potentiation of the peak current was at least 200% compared to the control choline response (= 100%). Such compounds are classified as belonging to a particular PAM type in the Experimental Part. Compounds not meeting the condition are not classified as belonging to a particular PAM-type.
The compounds also have a potentiating effect on the response to choline when measured by whole-cell patch clamp electrophysiology in GH4C1 cells stably over-expressing the human wild-type alpha 7 receptor.
Example D.2 : Patch-clamp current recording
Patch-clamp recording from mammalian cells has provided a powerful means of assessing the function of membrane-bound proteins thought to be subunits of ligand-gated ion channels. Activation of such proteins by endogenous or exogenous ligands cause opening of a pore associated with the receptor through which ions flow down their electrochemical gradient. In the case of the human alpha 7-wt nAChR-expressing GH4C1 recombinant cell line the preferential permeability to calcium of this receptor means that calcium flows into the cell upon activation by ACh, choline and other nicotinic ligands giving rise to a calcium current. Since this receptor rapidly desensitizes in the presence of agonist it is important that an application system is used which is capable of very rapid switching of solutions (< 100 ms) to prevent partial or full desensitisation of receptor responses coincident with the time of agonist application. Consequently, a second convenient technique to assess the enhancement of nicotinic efficacy is a patch-clamp recording from human alpha 7-wt nAChR-expressing GH4C1 cells coupled with a rapid-application system. […]
In general terms: The patch-clamp technique gives a direct electrical read-out from membranes.

[3] abbreviates: Ca2+ assay as described in D.1, read-out: pEC50 (converted).

Where two headings read alike, the source gives them in different places.

T1 sequence (P36544 23-502): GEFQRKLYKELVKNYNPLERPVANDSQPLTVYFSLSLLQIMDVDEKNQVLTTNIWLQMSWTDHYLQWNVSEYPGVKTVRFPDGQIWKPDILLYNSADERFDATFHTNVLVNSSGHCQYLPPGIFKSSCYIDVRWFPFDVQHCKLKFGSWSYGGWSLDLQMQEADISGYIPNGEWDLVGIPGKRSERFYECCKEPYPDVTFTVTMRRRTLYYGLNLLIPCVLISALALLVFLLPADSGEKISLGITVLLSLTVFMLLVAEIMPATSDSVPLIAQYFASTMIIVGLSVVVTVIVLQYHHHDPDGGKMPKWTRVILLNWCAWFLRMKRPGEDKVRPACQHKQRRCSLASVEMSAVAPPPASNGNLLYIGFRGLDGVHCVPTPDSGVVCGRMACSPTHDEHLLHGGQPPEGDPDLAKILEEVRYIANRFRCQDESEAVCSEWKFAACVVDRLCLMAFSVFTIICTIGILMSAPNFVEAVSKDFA

Take `Cc1cc(-c2c(F)cc(N3CCO[C@H](C(F)(F)F)C3)cc2CNC(=O)CC(C)C)cc(C)n1` [Compound 110]: the EC50 in experiment [1] (setting [3]) was 5.01 nM. Also, the Emax in experiment [1] turned out to be 384%. In addition, in experiment [2], the PAM type was 3.

In the case of `Cc1cc(-c2c(F)cc(N3CCO[C@@H](C(F)(F)F)C3)cc2CNC(=O)C2CC2)cc(C)n1` [Compound 102], in experiment [1] (setting [3]), the EC50 was 33.1 nM. Also, in experiment [1], the Emax was 962%. For the same compound, the PAM type in experiment [2] was 3.

`Cc1cc(-c2ccc(N3C[C@@H](C)O[C@@H](C)C3)cc2CNC(=O)C2CC2)cc(C)n1` [Compound 6]: the EC50 in experiment [1] (setting [3]) was 120 nM. Further, the PAM type in experiment [2] was determined as 2.

As to `Cc1cc(-c2ccc(N3C[C@@H](C)O[C@@H](C)C3)cc2CNC(=O)CC2CC2)cc(C)n1` [Compound 1, N-[[5-[(2R,6S)-2,6-dimethyl-4-morpholinyl]-2-(2,6-dimethyl-4-pyridinyl)phenyl]methyl]-cyclopropaneacetamide], the EC50 in experiment [1] (setting [3]) is 40.7 nM. In addition, the PAM type in experiment [2] was 3.

On to `Cc1cc(-c2ccc(N3C[C@@H](C)O[C@@H](C)C3)cc2CNC(=O)c2cc(C)on2)cc(C)n1` [Compound 3], for which, in experiment [1], the EC50 was 457 nM. In addition, the PAM type in experiment [2] is 1.

With `Cc1cc(-c2ccc(N3C[C@@H](C)O[C@@H](C)C3)cc2CNC(=O)C(C)C)cc(C)n1` [Compound 2, N-[[5-[(2R,6S)-2,6-dimethyl-4-morpholinyl]-2-(2,6-dimethyl-4-pyridinyl)phenyl]methyl]-2-methyl-propanamide], the Emax in experiment [1] (Ca2+ assay as described in D.1) was found to be 817%. Also, the EC50 in experiment [1] (setting [3]) is 37.2 nM. Further, in experiment [2], the PAM type was determined as 2.

With `Cc1cc(-c2c(F)cc(N3CCO[C@@H](C(F)(F)F)C3)cc2CNC(=O)C(C)C)cc(C)n1` [Compound 99], the EC50 in experiment [1] (setting [3]) is 9.77 nM. Besides, the Emax in experiment [1] turned out to be 292%. In experiment [2], the PAM type amounted to 3.

Turning to `Cc1cc(-c2cc(F)c(N3C[C@@H](C)O[C@@H](C)C3)cc2CNC(=O)CC2CC2)cc(C)n1` [Compound 125], in experiment [1] (setting [3]), the EC50 is 263 nM. Moreover, in experiment [1], the Emax was 451%. Also, in experiment [2], the PAM type was 2.

As for `Cc1cc(-c2c(F)cc(N3CCOC(C)C3)cc2CNC(=O)c2cc(C)on2)cc(C)n1` (centres unmarked) [Compound 112], the EC50 in experiment [1] (setting [3]) was 1070 nM. In addition, in experiment [1], the Emax turned out to be 443%. In addition, the PAM type in experiment [2] is 2.

In the case of `Cc1cc(-c2c(F)cc(N3C[C@@H](C)O[C@@H](C)C3)cc2CNC(=O)c2conc2C)ccn1` [Compound 91], the EC50 in experiment [1] (setting [3]) was 61.7 nM. Also, in experiment [2], the PAM type is on record as 2.

As for `Cc1cc(-c2c(F)cc(N3CCO[C@@H](C(F)(F)F)C3)cc2CNC(=O)c2conc2C)cc(C)n1` [Compound 103], the EC50 in experiment [1] (setting [3]) is 16.6 nM. Also, the Emax in experiment [1] is 796%. Further, the PAM type in experiment [2] is given as 3.

Regarding `Cc1cc(-c2cc(F)c(N3C[C@@H](C)O[C@@H](C)C3)cc2CNC(=O)C2CC2)cc(C)n1` [Compound 126], in experiment [1] (setting [3]), the EC50 was 575 nM. Further, the Emax in experiment [1] stood at 352%. The PAM type in experiment [2] was 2.

With `Cc1cc(-c2ccc(N3CC4CCC(C3)O4)cc2CNC(=O)C2CC2)cc(C)n1` [Compound 131], in experiment [1] (setting [3]), the EC50 was 631 nM. The Emax in experiment [1] was 269%. In experiment [2], the PAM type was found to be 2.

For the compound `Cc1cc(-c2c(F)cc(N3CCO[C@H](C(F)(F)F)C3)cc2CNC(=O)CC2CCC2)cc(C)n1` [Compound 105], in experiment [1] (setting [3]), the EC50 was 17 nM. In experiment [1], the Emax was found to be 559%. The PAM type in experiment [2] turned out to be 3.

For the compound `Cc1cc(-c2c(F)cc(N3CCO[C@H](C(F)(F)F)C3)cc2CNC(=O)C2CC2)cc(C)n1` [Compound 109], the EC50 in experiment [1] (setting [3]) was 81.3 nM. For the same compound, the Emax in experiment [1] is 258%. Further, in experiment [2], the PAM type was found to be 3.
